For five substances, inhibition index results are on record in patent US20030125234A1, “Alteration of protein stability” (priority 2001, published 2003).

Assay type in all cases: biochemical
Experiment [1] concerns the target T1, porcine somatotropin (pST) (Sus scrofa, UniProt P01248).
T1 construct: purchased Pfizer, Inc., Groton, Conn., USA (provided, not bought)
T1 sequence (P01248 27-216): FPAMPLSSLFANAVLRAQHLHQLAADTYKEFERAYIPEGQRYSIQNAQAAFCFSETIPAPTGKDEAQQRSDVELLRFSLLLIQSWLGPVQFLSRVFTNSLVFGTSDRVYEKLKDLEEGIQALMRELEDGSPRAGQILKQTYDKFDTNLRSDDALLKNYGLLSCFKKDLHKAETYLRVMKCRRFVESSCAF
The experiment is described as follows: Porcine somatotropin aggregation (turbidity at 360 nm) with PEG 8000. To be noted: pST 1.27 mg/mL, 60° C., compound 100X, standard deviation in parenthesis. Here is the method: (§1) Bovine insulin [Sigma, St. Louis, Mo., USA] was dissolved in phosphate saline (PBS) (50 mM sodium biphosphate, 100 mM sodium chloride), pH 7.0, bovine alpha-lactalbumin [Sigma] in 50 mM sodium phosphate, 100 mM sodium chloride and 2 mM EDTA, pH 6.2, chicken egg white lysozyme [Sigma] in 100 mM Tris, 1 mM EDTA, pH 8.2, human acidic fibroblast growth factor (FGF-1) in 6.2 mM sodium biphosphate, 120 mM sodium chloride, pH 7.2, porcine somatotropin (pST) [provided by Pfizer, Inc., Groton, Conn., USA] in 10 mM phosphate, pH 6. 1, human apolactoferrin (HLF) [Sigma] in 20 mM HEPES, 154 mM NaCl, pH 7.4, porcine heart citrate synthase (CS) in 40 mM HEPES, 50 mM KCl, 10 mM (NH4)2SO4 mM potassium acetate, pH 7.8, and yeast alcohol dehydrogenase (ADH) [Sigma] in pH 7.0 PBS. Selection of buffer solutions was based on an extensive series of preliminary studies to obtain appropriate insolubilization kinetics as described below.
(§2) Copper O-phenanthroline (1,10-phenanthroline) was prepared by mixing copper sulfate hexahydrate [Fisher] and o-phenanthroline [Sigma] in a 1:2 ratio. 1 M Dithiothreitol (DTT) was prepared at pH 7.0 PBS. Polyethylene glycol (M.W. 8000, Union Carbide, Danbury, Conn., USA) (PEG) was prepared at 20 mg/mL in 10 mM phosphate, pH 6.1.
(§3) The following compounds were obtained from Sigma and used without further purification: oxalic acid, sodium malonate, succinic acid, glutaric acid, adipic acid, pimelic acid, suberic acid, azelaic acid, guanidine hydrochloride, ammonium formate, beta-alanine, 4-aminobutyric acid, 5-aminovaleric acid, 6-aminocaproic acid, 7-aminoheptanoic acid, hydrazine, ethylenediamine, 1,3-diaminopropane, 1,4-diaminobutane, 1,5-diaminopentane, 1,6-diaminohexane, 1,7-diaminoheptane, Glu-Glu, Glu-Lys, Lys-Lys, diglycine, triglycine, tetraglycine, pentaglycine, and hexaglycine. […] Triglycine and tetraglycine were dissolved in pH 8.6 PBS, while pentaglycine and hexaglycine were dissolved in pH 10.6 PBS.
(§4) Each was either dissolved in pH 7.0 PBS, or pH 6.1 10 mM phosphate, and adjusted to the same pH.
(§5) Protein aggregation was monitored for 1 hour at 360 nm using an HP8453 UV-visible spectrophotometer system [Hewlett Packard, Germany]. […] Insulin (0.25 mg/mL (4.39E-5 M)) aggregation was monitored at 25° C. after addition of potential inhibitors and 20 μL of 1 M DTT (1.27E-4 M). Alpha-lactabumin (0.4 mg/mL (2.82E-5 M)) aggregation was monitored at 37° C. in the presence of 20 μL of 1 M DTT (1.27E-4 M). Lysozyme (0.4 mg/mL (2.86E-5 M)) aggregation was monitored at 25° C. in the presence of 20 μL of 1 M DTT (1.27E-4 M). FGF-1 (50 μg/mL (3.12E-6 M)) aggregation was monitored at 50° C. Porcine somatotropin (1.27 mg/mL (5.76E-5 M)) aggregation was monitored at 60° C. in the presence of PEG 8000 (20 mg/mL) which was included to enhance the protein association process through a simple exclusion volume effect. HLF (0.4 mg/mL (5.23E-6 M)) aggregation was monitored at 43° C. in the presence of 1.27E-4 M DTT. Citrate synthase (96 μg/mL (9.80E-7 M)) aggregation was monitored at45° C. ADH (1 mg/mL (7.14E-6 M)) was monitored at 37° C. following the addition of 7.76E-5 M Cu(OP)2. Aggregation was compared to protein in the absence of the particular dipolar compound. After stirring, experiments were initiated by the addition of proteins followed by stressing reagents to 1 cm pathlength cuvettes employing a seven-position thermostatted sample holder that was cycled at 30-second intervals. Alternatively, a microtiter plate reader was employed under the same conditions in a 96 well format.
(§6) All optical density (OD)360nm versus time results were exported into Excel [Microsoft] for data analysis.

The target of experiment [2] is T2, porcine heart citrate synthase (CS) (Sus scrofa, UniProt P00889).
T2 construct: porcine heart citrate synthase (CS); from tissue; host or cells: porcine heart
T2 sequence (P00889 28-464): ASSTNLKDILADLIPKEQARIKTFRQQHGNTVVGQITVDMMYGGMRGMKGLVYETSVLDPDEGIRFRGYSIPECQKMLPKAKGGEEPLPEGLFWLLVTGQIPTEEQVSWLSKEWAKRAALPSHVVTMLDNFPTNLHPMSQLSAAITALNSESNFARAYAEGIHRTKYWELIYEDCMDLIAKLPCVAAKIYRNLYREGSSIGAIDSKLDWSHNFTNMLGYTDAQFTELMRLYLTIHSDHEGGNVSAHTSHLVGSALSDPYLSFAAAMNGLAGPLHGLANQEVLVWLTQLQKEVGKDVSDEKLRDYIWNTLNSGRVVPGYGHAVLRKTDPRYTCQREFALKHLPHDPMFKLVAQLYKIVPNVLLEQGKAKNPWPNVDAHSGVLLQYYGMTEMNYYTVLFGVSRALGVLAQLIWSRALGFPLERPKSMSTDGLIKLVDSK
The experiment is described as follows: Citrate synthase thermal aggregation (turbidity at 360 nm). To be noted: CS 96 μg/mL, 45° C.; compound 1,000X; standard deviation in parenthesis. Here is the method: as §1, §3, §4, §5
(§7) All optical density (OD)360nm versus time results were exported into Excel [Microsoft] for data analysis. […] The maximum rate of change in OD versus time plots (r) was used to determine the rate of the reaction from the slope at this point.

Experiment [3] concerns the target T3, yeast alcohol dehydrogenase (ADH) (Saccharomyces cerevisiae, UniProt P00330).
T3 construct: purchased Sigma
T3 sequence (P00330 2-348 limits assumed): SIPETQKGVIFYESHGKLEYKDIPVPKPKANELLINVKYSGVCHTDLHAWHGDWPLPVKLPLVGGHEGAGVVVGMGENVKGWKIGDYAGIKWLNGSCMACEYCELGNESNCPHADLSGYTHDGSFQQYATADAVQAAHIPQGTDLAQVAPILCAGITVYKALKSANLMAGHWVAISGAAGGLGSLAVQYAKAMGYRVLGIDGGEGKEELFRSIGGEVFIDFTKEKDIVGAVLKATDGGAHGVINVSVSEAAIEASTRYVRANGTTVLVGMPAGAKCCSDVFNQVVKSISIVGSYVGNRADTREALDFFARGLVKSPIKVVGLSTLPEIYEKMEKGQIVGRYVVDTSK
As to the kind of experiment: ADH oxidation-induced aggregation (turbidity at 360 nm), Cu(OP)2. To be noted: ADH 1 mg/mL, 37° C., Cu(OP)2; compound 1,000X; standard deviation in parenthesis. Here is the method:
as §1, §2, §3, §4, §5, §6

The target in a further experiment is T4, Bovine insulin (Bos taurus, UniProt P01317).
T4 construct: purchased Sigma, St. Louis, Mo., USA
The experiment is described as follows: Insulin aggregation (turbidity at 360 nm) induced by DTT. Particulars: Insulin 0.25 mg/mL, 25° C., DTT; compound 100×; standard deviation in parenthesis. Here is the method: as §1, §2, §3, §4, §5, §6

Experiment [4] concerns the target human acidic fibroblast growth factor (FGF-1) (Homo sapiens, UniProt P05230). The experiment is described as follows: FGF-1 thermal aggregation (turbidity at 360 nm). To be noted: FGF-1 50 μg/mL, 50° C.; compound 1,000×; standard deviation in parenthesis. As for the experimental part: as §1, §3, §4, §5, §7
Experiment [5] deals with T5, chicken egg white lysozyme (Gallus gallus, UniProt P00698).
T5 construct: chicken egg white lysozyme [Sigma]; purchased Sigma; host or cells: egg white
The experiment is described as follows: Lysozyme aggregation (turbidity at 360 nm) induced by DTT. Particulars: Lysozyme 0.4 mg/mL, 25° C., DTT; compound 1,000×; standard deviation in parenthesis. Here is the method: as §1, §2, §3, §4, §5, §6

The target in the next experiment is T6, bovine alpha-lactalbumin (Bos taurus, UniProt P00711).
T6 construct: purchased Sigma
T6 sequence (P00711 20-142): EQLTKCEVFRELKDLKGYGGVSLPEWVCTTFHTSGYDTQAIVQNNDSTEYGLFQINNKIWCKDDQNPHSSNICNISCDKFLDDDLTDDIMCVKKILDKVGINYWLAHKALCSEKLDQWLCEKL
As to the kind of experiment: Alpha-lactalbumin aggregation (turbidity at 360 nm) induced by DTT. To be noted: α Lactalbumin 0.4 mg/mL, 37° C., DTT; compound 1,000×; standard deviation in parenthesis. As for the experimental part: as §1, §2, §3, §4, §5, §6

The target of experiment [6] is T7, human apolactoferrin (HLF) (Homo sapiens, UniProt P02788).
T7 construct: purchased Sigma
The experiment is described as follows: HLF aggregation (turbidity at 360 nm) induced by DTT. To be noted: HLF 0.4 mg/mL, 43° C., DTT; first HLF column, head 10,000×; standard deviation in parenthesis. As for the experimental part:
as §1, §2, §3, §4, §5, §6

T7 sequence (P02788 20-710): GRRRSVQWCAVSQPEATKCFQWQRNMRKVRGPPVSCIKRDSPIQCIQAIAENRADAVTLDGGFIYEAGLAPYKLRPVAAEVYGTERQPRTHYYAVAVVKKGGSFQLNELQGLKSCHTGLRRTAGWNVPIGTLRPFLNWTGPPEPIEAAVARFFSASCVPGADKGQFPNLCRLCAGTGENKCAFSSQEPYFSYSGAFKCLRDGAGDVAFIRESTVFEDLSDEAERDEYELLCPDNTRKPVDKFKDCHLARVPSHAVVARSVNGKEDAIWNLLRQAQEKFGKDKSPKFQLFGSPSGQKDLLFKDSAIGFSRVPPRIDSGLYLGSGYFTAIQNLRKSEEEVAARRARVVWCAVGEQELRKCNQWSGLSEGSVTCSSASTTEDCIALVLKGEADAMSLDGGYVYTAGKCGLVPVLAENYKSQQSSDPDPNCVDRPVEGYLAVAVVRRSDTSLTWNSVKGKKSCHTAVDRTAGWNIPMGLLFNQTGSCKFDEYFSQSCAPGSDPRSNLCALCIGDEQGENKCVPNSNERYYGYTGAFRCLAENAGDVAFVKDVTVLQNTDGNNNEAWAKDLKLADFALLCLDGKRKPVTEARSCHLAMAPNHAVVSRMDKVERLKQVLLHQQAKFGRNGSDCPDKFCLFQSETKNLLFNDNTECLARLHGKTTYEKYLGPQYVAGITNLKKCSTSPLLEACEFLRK
T4 sequence (P01317 25-54 limits assumed): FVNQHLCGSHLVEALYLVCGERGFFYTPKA
T4 sequence (P01317 85-105 limits assumed): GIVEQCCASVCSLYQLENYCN
T5 sequence (P00698 19-147): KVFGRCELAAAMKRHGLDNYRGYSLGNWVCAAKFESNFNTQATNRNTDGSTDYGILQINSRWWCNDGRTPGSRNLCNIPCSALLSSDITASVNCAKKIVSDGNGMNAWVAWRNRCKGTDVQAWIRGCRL
human acidic fibroblast growth factor (FGF-1), sequence (P05230 whole entry): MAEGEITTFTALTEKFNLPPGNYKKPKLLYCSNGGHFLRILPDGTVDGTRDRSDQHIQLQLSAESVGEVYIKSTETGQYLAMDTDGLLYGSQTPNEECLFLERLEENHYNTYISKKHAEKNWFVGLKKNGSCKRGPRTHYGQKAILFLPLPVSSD

For “CH3—NH2-(Glu)^−-(Gly)n-(Glu)^−-COO^− [CH3—NH2—(E)^−—(G)1—(E)^−—COO^−]”, the inhibition index in experiment [1] is 1.0 (0.1); in experiment [2], 0.8 (0.1); in experiment [3] it was 1.6 (0.1); at Bovine insulin, 0.5 (0.2); in experiment [4] it was 1.9 (0.1); in experiment [5] it was 0.9 (0.1). Moreover, the inhibition index on bovine alpha-lactalbumin was 0.2 (0.1); in experiment [6], 1.6 (0.1).
“^+NH3-(Lys)^+-(Gly)n-(Lys)^+-CONH2 [^+NH3—(K)^+—(G)4—(K)^+—CONH2]”: the inhibition index in experiment [1] is given as 0.9 (0.0); in experiment [2], 0.8 (0.2); in experiment [3], 1.5 (0.3); at Bovine insulin, 1.6 (0.3); in experiment [4], 2.0 (1.0); in experiment [5], 1.4 (0.5). Besides, the inhibition index on bovine alpha-lactalbumin is recorded as 1.4 (0.3); in experiment [6], 1.9 (0.2).
Consider “^+NH3-(Lys)^+-(Gly)n-(Glu)^−-COO^− [KGGE]”, for which the inhibition index is listed as 0.6 (0.1) in experiment [1]; 1.4 (0.4) in experiment [2]; 0.8 (0.1) in experiment [3]; 1.0 (0.3) at Bovine insulin; 1.2 (0.2) in experiment [4]; 2.6 (0.4) in experiment [5]. The values for the inhibition index (on bovine alpha-lactalbumin; in experiment [6]) were 0.5 (0.2) and 0.7 (0.1), respectively.
As for “CH3—NH2-(Glu)^−-(Gly)n-(Glu)^−-COO^− [CH3—NH2—(E)^−—(G)3—(E)^−—COO^−]”, the inhibition index was 1.2 (0.2) in experiment [1]; 1.0 (0.2) in experiment [2]; 1.3 (0.1) in experiment [3]; 1.3 (0.4) at Bovine insulin; 2.0 (0.3) in experiment [4]; 0.9 (0.2) in experiment [5]. In addition, the inhibition index on bovine alpha-lactalbumin is on record as 0.5 (0.3); in experiment [6], 1.5 (0.3).
As to “^+NH3-(Lys)^+-(Gly)n-(Lys)^+-CONH2 [^+NH3—(K)^+—(G)2—(K)^+—CONH2]”, the inhibition index in experiment [1] is listed as 1.2 (0.2); in experiment [2] it was 0.7 (0.2); in experiment [3], 0.8 (0.1); on Bovine insulin it was 1.8 (0.1); in experiment [4] it was 1.8 (0.3); in experiment [5], 0.4 (0.1). Also, the figures for the inhibition index (on bovine alpha-lactalbumin; in experiment [6]) were 3.3 (0.9) and 1.3 (0.1), respectively.
